Results published in patent US8759343B2 (priority 2007, dated 2014).
Counter-ions that a name gives are not always drawn.

Molecular target: nicotinic receptors comprising the α7 subunit (Rattus norvegicus, UniProt Q05941)
Assay: biochemical
Format: binding

Chain of nicotinic receptors comprising the α7 subunit (Q05941 23-502): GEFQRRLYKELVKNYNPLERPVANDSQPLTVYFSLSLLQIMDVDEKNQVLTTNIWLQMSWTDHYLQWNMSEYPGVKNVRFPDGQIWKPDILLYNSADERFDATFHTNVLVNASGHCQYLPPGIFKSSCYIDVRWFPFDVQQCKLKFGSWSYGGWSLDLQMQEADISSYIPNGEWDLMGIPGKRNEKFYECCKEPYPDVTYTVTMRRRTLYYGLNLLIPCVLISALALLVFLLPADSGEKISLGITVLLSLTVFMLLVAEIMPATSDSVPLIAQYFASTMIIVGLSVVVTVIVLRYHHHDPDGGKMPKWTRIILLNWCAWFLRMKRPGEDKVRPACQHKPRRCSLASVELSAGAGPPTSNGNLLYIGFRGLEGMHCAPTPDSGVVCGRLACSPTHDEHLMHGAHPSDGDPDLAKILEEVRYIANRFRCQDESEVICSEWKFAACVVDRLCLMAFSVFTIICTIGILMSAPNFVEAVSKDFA

| SMILES | IC50 |
| --- | --- |
| Fc1cccc(-c2ccc(C34CCN(CC3)C4)cn2)c1 [Compound 19, 4-[6-(3-fluorophenyl)pyridin-3-yl]-1-azabicyclo[2.2.1]heptane] | 13.8 nM |
| c1cc(-c2ccc(C34CCN(CC3)C4)cn2)cc(-n2cccn2)c1 [Compound 113, 4-[6-(3-(pyrazol-1-yl)phenyl)pyridin-3-yl]-1-azabicyclo[2.2.1]heptane] | 4.7 nM |
| c1cc2c(cc1-c1ccc(C34CCN(CC3)C4)cn1)OCO2 [Compound 16, 4-[6-(1,3-benzodioxol-5-yl)pyridin-3-yl]-1-azabicyclo[2.2.1]heptane] | 9.1 nM |
| c1cnc2ccc(-c3ccc(C45CCN(CC4)C5)cn3)cc2c1 [Compound 12, 6-[5-(1-azabicyclo[2.2.1]hept-4-yl)pyridin-2-yl]quinoline] | 37.1 nM |

Test system: not given
Assay: not given

| SMILES | melting point |
| --- | --- |
| Fc1cccc(-c2ccc(C34CCN(CC3)C4)cn2)c1 [Compound 19, 4-[6-(3-fluorophenyl)pyridin-3-yl]-1-azabicyclo[2.2.1]heptane] | 88 to 90 °C |
| c1cc(-c2ccc(C34CCN(CC3)C4)cn2)cc(-n2cccn2)c1 [Compound 113, 4-[6-(3-(pyrazol-1-yl)phenyl)pyridin-3-yl]-1-azabicyclo[2.2.1]heptane] | 114 to 116 °C |
| COc1cccc(-c2ccc(C34CCCN(CCC3)C4)cn2)c1F | 144 to 146 °C |
| FC(F)(F)c1ccccc1-c1ccc(C23CCN(CC2)C3)cn1 (as salt: HBr) | 310 to 312 °C |
| c1ccc2oc(-c3ccc(C45CCN(CC4)C5)cn3)cc2c1 | 164 to 165 °C |
| COc1cc(F)ccc1-c1ccc(C23CCCN(CCC2)C3)cn1 | 148 to 150 °C |
| c1ccc(-c2ccc(C34CCCN(CCC3)C4)cn2)cc1 | 103 to 105 °C |
| c1cc2nonc2cc1-c1ccc(C23CCCN(CCC2)C3)cn1 | 151 to 153 °C |
| FC(F)(F)c1cccc(-c2ccc(C34CCN(CC3)C4)cn2)c1 (as salt: HCl) | 191 to 192 °C |
| c1ccc2cc(-c3ccc(C45CCN(CC4)C5)cn3)ccc2c1 | 154 to 156 °C |
| c1cc2c(cc1-c1ccc(C34CCN(CC3)C4)cn1)OCO2 [Compound 16, 4-[6-(1,3-benzodioxol-5-yl)pyridin-3-yl]-1-azabicyclo[2.2.1]heptane] | 256 to 258 °C |
| c1cnc2ccc(-c3ccc(C45CCN(CC4)C5)cn3)cc2c1 (as salt: HCl) [Compound 12, 6-[5-(1-azabicyclo[2.2.1]hept-4-yl)pyridin-2-yl]quinoline] | 327 to 328 °C |
| c1ccc2c(-c3ccc(C45CCCN(CCC4)C5)cn3)cccc2c1 | 167 to 169 °C |
| Fc1ncccc1-c1ccc(C23CCN(CC2)C3)cn1 | 116 to 117 °C |
| COc1ccc(-c2ccc(C34CCCN(CCC3)C4)cn2)cc1F | 138 to 140 °C |
| c1ccc2ncc(-c3ccc(C45CCCN(CCC4)C5)cn3)cc2c1 | 160 to 162 °C |
| CC(=O)c1cccc(-c2ccc(C34CCN(CC3)C4)cn2)c1 | 95 to 98 °C |
| COc1ccc(OC)c(-c2ccc(C34CCN(CC3)C4)cn2)c1 (as salt: HBr) | 152 to 154 °C |
| c1csc(-c2ccc(C34CCN(CC3)C4)cn2)n1 | 127 to 129 °C |
| FC(F)(F)Oc1cccc(-c2ccc(C34CCN(CC3)C4)cn2)c1 (as salt: HCl) | 152 to 154 °C |
| COc1cccc(-c2ccc(C34CCN(CC3)C4)cn2)c1 | 87 to 89 °C |
| c1ccc(-c2ccc(-c3ccc(C45CCCN(CCC4)C5)cn3)cc2)cc1 | 146 to 148 °C |
| Fc1cccc(-c2ccc(C34CCCN(CCC3)C4)cn2)c1 | 102 to 104 °C |
| c1ncc(-c2ccc(C34CCCN(CCC3)C4)cn2)cn1 | 139 to 141 °C |
| c1csc(-c2ccc(C34CCCN(CCC3)C4)cn2)n1 | 124 to 126 °C |
| c1cc(-c2ccc(C34CCCN(CCC3)C4)cn2)c2ccncc2c1 (as salt: HBr) | 246 to 248 °C |
| c1ccc2cc(-c3ccc(C45CCCN(CCC4)C5)cn3)ccc2c1 | 163 to 165 °C |
| c1nc(N2CCOCC2)ncc1-c1ccc(C23CCN(CC2)C3)cn1 | 226 to 227 °C |
| COc1ccncc1-c1ccc(C23CCCN(CCC2)C3)cn1 | 134 to 136 °C |
